Experimental data published in US12497417B2, “Delivery systems for controlled drug release” (LADRX CORPORATION, priority 2015, dated 2025).

Legend:
[1] = tested on: human ovarian carcinoma xenograft model OVXF 899; assay: Gemcitabine and compound 15 in human ovarian carcinoma xenograft model OVXF 899; assay type: in vivo, NMRI nude mice; details: for Body weight change (BWC) versus control: compound 15 18 mg/kg gemcitabine equivalents i.v. days 1, 4, 8, 11, 15, 18, 22, 25
Experimental: Animals were kept in cages, the temperature inside the cages maintained at 25±1° C. with a relative humidity of 45-65% and an air change rate in the cage of 60-fold per hour. […] Feed and water were provided ad libitum. […] Animals were routinely monitored twice daily on working days and daily on Saturdays and Sundays. Starting on day 0, animals were weighed twice a week. Relative body weights (RBW) of individual animals are calculated by dividing the individual absolute body weight on day X (BWx) by the individual body weight on the day of randomization. The tumor volume is determined by a two-dimensional measurement with calipers on the day of randomization (Day 0) and then twice weekly. […] Schedules are applied to the extent that animal welfare policies allow. […] Frozen in liquid nitrogen, lyophilized (>48 h) and stoppered.

[2] = tested on: human pancreatic carcinoma xenograft model Panc11159; assay: Gemcitabine and compound 15 in human pancreatic carcinoma xenograft model Panc11159; assay type: in vivo, NMRI nude mice; details: for tumor volumes (change): at day 85, gemcitabine 240 mg/kg, compound 15 18 mg/kg gemcitabine equivalents; for Body weight change (BWC) versus control: gemcitabine 240 mg/kg i.v. d 36, 43, 50, 57, compound 15 18 mg/kg gemcitabine equivalents i.v. d 36, 40, 43, 47, 50, 54, 57, 60
Experimental: Female NMRI nude mice (nu/nu) received unilateral Panc11159 tumor pieces subcutaneously implanted until tumors were palpable and had reached a volume of ˜200 mm^3. Animals were kept in cages (Macrolon Type-II wire-mesh), the temperature inside the cages maintained at 22±1° C. with a relative humidity of 50±10%. Light period: artificial; 12-hours dark/12 hours light rhythm (light 06.00 to 18.00 hours). The health of the mice was examined at the start of the experiment and twice per day during the experiment; identification: Ear mark and cage labels. The animals were fed with Ssniff NM, Soest, Germany and had access to autoclaved and acidified (pH 4.0) drinking. Feed and water were provided ad libitum.
Body weight change was performed two or three times per week. Tumor diameters (median and medium) were measured two or three times a week with a caliper. Tumor volumes were calculated according to V=(length×(width)2)/2. For calculation of the relative tumor volume (RTV) the tumor volumes at each measurement day were related to the day of first treatment. Stock solutions of compound 15 were prepared as follows for the two treatment groups: • 10 mice, 30-40 g average weight: 2×18 mg/kg gemcitabine equivalents (bi-weekly dosing for 4 weeks)≡58.4 mg/kg≡2.35 mg/mouse. Sample preparation: 115.5 mg weighed in a 10 mL vial dissolved in 7.35 mL 20 mM sodium phosphate buffer pH 7; 4 aliquots with 1.86 mL each in 10 mL vials. Frozen in liquid nitrogen, lyophilized (>48 h) and stoppered.
On the day of treatment the lyophilized samples were dissolved in 20 mM sodium phosphate buffer pH 7, containing 5% Glucose and injected intravenously. Intravenous administration with vehicle (20 mM sodium phosphate buffer, 5% D-glucose—pH 7.0) gemcitabine (dissolved in 5% D-glucose; dose 240 mg/kg) and carried out on d 36, 43, 50, 57 compound 15 (dissolved in 20 mM sodium phosphate buffer, 5% D-glucose—pH 7.0; 18 mg/kg gemcitabine equivalents) was carried on days d 36, 40, 43, 47, 50, 54, 57, and 60.

[3] = tested on: NSLC xenograft model LXFE 397; assay: Gemcitabine and compound 15 in human xenograft non small cell lung cancer model LXFE 397; assay type: in vivo, NMRI nude mice
Experimental: Female NMRI nude mice received unilateral tumor implants subcutaneously in the left flank while under isoflurane anesthesia with human LXFE 397 (squamous cell carcinoma, differentiation: poor) until tumors were palpable and had reached a volume of 50-150 mm^3. Animals were kept in cages, the temperature inside the cages maintained at 25±1° C. with a relative humidity of 45-65% and an air change rate in the cage of 60-fold per hour. The animals were fed with autoclaved Teklad Global 19% Protein Extruded Diet (T.2019S.12) from Harlan Laboratories and had access to sterile filtered and acidified (pH 2.5) tap water which was changed twice weekly. Feed and water are provided ad libitum. […] Animals are routinely monitored twice daily on working days and daily on Saturdays and Sundays. Starting on day 0, animals are weighed twice a week. Relative body weights (RBW) of individual animals are calculated by dividing the individual absolute body weight on day X (BWx) by the individual body weight on the day of randomization. The tumor volume is determined by a two-dimensional measurement with calipers on the day of randomization (Day 0) and then twice weekly. Tumor volumes are calculated according to the following equation: Tumor Vol [mm^3]=a [mm]×b^2 [mm^2]×0.5, where “a” is the largest diameter and “b” is the perpendicular diameter of the tumor representing an idealized ellipsoid. The relative volume of an individual tumor on day X (RTVx) is calculated by dividing the absolute volume [mm^3] of the respective tumor on day X (Tx) by the absolute volume of the same tumor on the day of randomization. Schedules are applied to the extent that animal welfare policies allow. Termination of individual mice at tumor volume >2000 mm^3. Stock solutions of compound 15 were prepared as follows for the two treatment groups: • 1) 8 mice, 40 g average weight: 24 mg/kg Gemcitabine equivalents≡78.48 mg/kg≡3.14 mg/mouse. Sample preparation: 154 mg weighed in a 20 mL vial dissolved in 14.7 mL 20 mM sodium phosphate buffer pH 7; 4 aliquots with 3.6 mL each in 10 mL vials. Frozen in liquid nitrogen, lyophilized (>48 h) and stoppered. • 2) 8 mice, 40 g average weight: 36 mg/kg Gemcitabine equivalents≡117.7 mg/kg≡4.71 mg/mouse. Sample preparation: 231 mg weighed in a 20 mL vial dissolved in 14.7 mL 20 mM sodium phosphate buffer pH 7; 4 aliquots with 3.6 mL each in 10 mL vials. Frozen in liquid nitrogen, lyophilized (>48 h) and stoppered.
On the day of treatment the lyophilized samples were dissolved in 20 mM sodium phosphate buffer pH 7, containing 5% Glucose and injected intravenously. […]

[4] = tested on: human non-small cell carcinoma xenograft model LXFE 937; assay: Gemcitabine and compound 15 in human non-small cell carcinoma xenograft model LXFE 937; assay type: in vivo, NMRI nude mice; details: for Body weight change (BWC) versus control: compound 15 18 mg/kg gemcitabine equivalents i.v. days 0, 3, 7, 10, 14, 17, 21, 24
Experimental: Female NMRI nude mice received unilateral tumor implants subcutaneously in the left flank while under isoflurane anesthesia with human LXFE 937 tumor pieces until tumors were palpable and had reached a volume of ˜100 mm^3. Animals were kept in cages, the temperature inside the cages maintained at 25±1° C. with a relative humidity of 45-65% and an air change rate in the cage of 60-fold per hour. The animals were fed with autoclaved Teklad Global 19% Protein Extruded Diet (T.2019S.12) from Harlan Laboratories and had access to sterile filtered and acidified (pH 2.5) tap water which was changed twice weekly. Feed and water were provided ad libitum. […] Animals were routinely monitored twice daily on working days and daily on Saturdays and Sundays. Starting on day 0, animals were weighed twice a week. Relative body weights (RBW) of individual animals are calculated by dividing the individual absolute body weight on day X (BWx) by the individual body weight on the day of randomization. The tumor volume is determined by a two-dimensional measurement with calipers on the day of randomization (Day 0) and then twice weekly. Tumor volumes are calculated according to the following equation: • Tumor Vol [mm^3]=a [mm]×b^2 [mm^2]×0.5, where “a” is the largest diameter and “b” is the perpendicular diameter of the tumor representing an idealized ellipsoid. The relative volume of an individual tumor on day X (RTVx) is calculated by dividing the absolute volume [mm^3] of the respective tumor on day X (Tx) by the absolute volume of the same tumor on the day of randomization. Schedules are applied to the extent that animal welfare policies allow. Termination of individual mice at tumor volume >2000 mm^3. Stock solutions of compound 15 were prepared as follows for the two treatment groups: • 1) 8 mice, 40 g average weight: 2×18 mg/kg gemcitabine equivalents (bi-weekly dosing; d 0, 3, 7, 10 etc. for 4 weeks)≡58.4 mg/kg≡2.35 mg/mouse. Sample preparation: 115.5 mg weighed in a 10 mL vial dissolved in 7.35 mL 20 mM sodium phosphate buffer pH 7; 4 aliquots with 1.86 mL each in 10 mL vials. Frozen in liquid nitrogen, lyophilized (>48 h) and stoppered. On the day of treatment the lyophilized samples were dissolved in 20 mM sodium phosphate buffer pH 7, containing 5% Glucose and injected intravenously. Intravenous administration with vehicle (20 mM sodium phosphate buffer, 5% D-glucose—pH 7.0), gemcitabine (dissolved in 5% D-glucose; dose 240 mg/kg) and carried out on 1, 8, 15, and 22 and compound 15 (dissolved in 20 mM sodium phosphate buffer, 5% D-glucose—pH 7.0; 18 mg/kg gemcitabine equivalents) was carried on days 0, 3, 7, 10, 14, 17, 21, and 24.

cytidine deaminase = biological target: T1, cytidine deaminase (Homo sapiens, UniProt P32320); details: recommended dose of ˜1000 mg/m^2; cited from earlier work
T1 construct: host or cells: endogenous enzyme in the dosed subject (in vivo metabolism)

[5] = approximately one seventh of the dose of gemcitabine, p<0.05
[6] = gemcitabine 240 mg/kg i.v. days 1, 8, 15, 22

T1 sequence (P32320 whole entry): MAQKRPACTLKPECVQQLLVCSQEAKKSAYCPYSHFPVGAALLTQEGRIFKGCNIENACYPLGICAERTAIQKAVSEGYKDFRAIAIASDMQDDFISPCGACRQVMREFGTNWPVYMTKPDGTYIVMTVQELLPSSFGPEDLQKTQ

Compound	tumor response ([1]; 50 days after the end of therapy, 18 mg/kg gemcitabine equivalents bi-weekly for 4 weeks)	antitumor efficacy versus gemcitabine (tumor growth development) [1, 5]	Body weight change (BWC) versus control [1, 6]	antitumor efficacy versus gemcitabine (tumor growth development) [2, 5]	tumor volumes (change) [2]	Body weight change (BWC) versus control [2]	antitumor efficacy versus gemcitabine (tumor growth development) ([3]; 24 mg/kg gemcitabine equivalents, one tenth of the dose of gemcitabine, p<0.05)	Body weight change (BWC) versus control ([3]; day 27, 24 mg/kg gemcitabine equivalents i.v. days 1, 8, 15, 22) [%]	antitumor efficacy versus gemcitabine (tumor growth development) [4, 5]	Body weight change (BWC) versus control [4, 6]	tumor response ([4]; ˜60 days after the end of therapy, 18 mg/kg gemcitabine equivalents bi-weekly for 4 weeks)	average tumor volume ([1]; 50 days after therapy, gemcitabine 240 mg/kg) [mm^3]	start of tumor regrowth [1, 6] [days after therapy]	mice sacrificed due to tumor volume exceeding 2000 mm^3 ([1]; on day 74, 8 mice per group) [mice]	Body weight change (BWC) versus control ([3]; day 23, gemcitabine 240 mg/kg i.v. days 1, 8, 15, 22)	mice sacrificed due to tumor volume exceeding 2000 mm^3 ([3]; on day 23, 8 mice per group, gemcitabine 240 mg/kg) [mice]	fraction deactivated by cytidine deaminase to the inactive uridine metabolite and excreted in the urine (cytidine deaminase)	mice sacrificed due to tumor volume exceeding 2000 mm^3 ([4]; between day 78 to 85, 8 mice per group) [mice]	start of tumor regrowth [4, 6] [days after therapy]	average tumor volume ([4]; ˜50 days after therapy, gemcitabine 240 mg/kg) [mm^3]
C/C(=N\NC(=O)c1ccc(NC(=O)CCCCCN2C(=O)C=CC2=O)cc1[N+](=O)[O-])c1ccc(C(=O)Nc2ccn([C@@H]3O[C@H](COP(=O)(O)O)C(O)C3(F)F)c(=O)n2)cc1 (stereo partly drawn) [Compound 15]	complete tumor remissions	superior antitumor efficacy	approximately +10%	superior antitumor efficacy	slight regression or stable disease	approximately +3%	superior antitumor efficacy	~0.5	superior antitumor efficacy	approximately +2%	complete tumor remissions									
Nc1ccn([C@@H]2O[C@H](CO)[C@@H](O)C2(F)F)c(=O)n1 [gemcitabine]			approximately +5%		doubled	approximately +3%				approximately +10%		~2000	~10	3	approximately −6%	2	approximately 90%	2	~20	~700
